Numbers after ± are expanded uncertainties.
Conditions: Crystal; visual observation

`C[n+]1ccn(CCOCCOCCn2cc[n+](C)c2)c1.F[P-](F)(F)(F)(F)F.F[P-](F)(F)(F)(F)F` showed a Normal melting temperature of 91 ± 2 °C.

— the NIST ThermoML archive (doi:10.1021/je5004466)
